Values after ≈ are worked out from the molar mass of the structure shown.
Key:
Type in all cases: functional
Klebsiella pneumoniae [1] = assay: Antimicrobial activity against Klebsiella pneumoniae PFGE clone C expressing beta-lactamase KPC-2 by Etest
Klebsiella pneumoniae [2] = assay: Antimicrobial activity against Klebsiella pneumoniae PFGE clone F expressing beta-lactamase KPC-2 by Etest
Klebsiella pneumoniae [3] = assay: Antimicrobial activity against Klebsiella pneumoniae PFGE clone A expressing beta-lactamase KPC-2 by Etest
Klebsiella pneumoniae [4] = assay: Antimicrobial activity against Klebsiella pneumoniae PFGE clone B expressing beta-lactamase KPC-2 by Etest
Klebsiella oxytoca [5] = assay: Antimicrobial activity against Klebsiella oxytoca expressing beta-lactamase KPC-2 by Etest
Klebsiella pneumoniae [6] = assay: Antimicrobial activity against Klebsiella pneumoniae PFGE clone D expressing beta-lactamase KPC-2 by Etest
Enterobacter cloacae [7] = assay: Antimicrobial activity against Enterobacter cloacae expressing beta-lactamase KPC-2 by Etest
Klebsiella pneumoniae [8] = assay: Antimicrobial activity against Klebsiella pneumoniae PFGE clone E expressing beta-lactamase KPC-2 by Etest
Klebsiella pneumoniae [9] = assay: Antimicrobial activity against Klebsiella pneumoniae PFGE clone C expressing beta-lactamase KPC-2 by Etest in presence of beta-lactamase inhibitor Tazobactam
Enterobacter cloacae [10] = assay: Antimicrobial activity against Enterobacter cloacae expressing beta-lactamase KPC-2 by Etest in presence of beta-lactamase inhibitor Tazobactam
Klebsiella pneumoniae [11] = assay: Antimicrobial activity against Klebsiella pneumoniae PFGE clone D expressing beta-lactamase KPC-2 by Etest in presence of beta-lactamase inhibitor Tazobactam
Klebsiella pneumoniae [12] = assay: Antimicrobial activity against Klebsiella pneumoniae PFGE clone F expressing beta-lactamase KPC-2 by Etest in presence of beta-lactamase inhibitor Tazobactam
Klebsiella pneumoniae [13] = assay: Antimicrobial activity against Klebsiella pneumoniae PFGE clone E expressing beta-lactamase KPC-2 by Etest in presence of beta-lactamase inhibitor Tazobactam
Klebsiella pneumoniae [14] = assay: Antimicrobial activity against Klebsiella pneumoniae PFGE clone A expressing beta-lactamase KPC-2 by Etest in presence of beta-lactamase inhibitor Tazobactam
Klebsiella pneumoniae [15] = assay: Antimicrobial activity against Klebsiella pneumoniae PFGE clone B expressing beta-lactamase KPC-2 by Etest in presence of beta-lactamase inhibitor Tazobactam
Klebsiella oxytoca [16] = assay: Antimicrobial activity against Klebsiella oxytoca expressing beta-lactamase KPC-2 by Etest in presence of beta-lactamase inhibitor Tazobactam

Row | Compound | MIC (Klebsiella pneumoniae [1]) | MIC (Klebsiella pneumoniae [2]) | MIC (Klebsiella pneumoniae [3]) | MIC (Klebsiella pneumoniae [4]) | MIC (Klebsiella oxytoca [5]) | MIC (Klebsiella pneumoniae [6]) | MIC (Enterobacter cloacae [7]) | MIC (Klebsiella pneumoniae [8]) | MIC (Klebsiella pneumoniae [9]) | MIC (Enterobacter cloacae [10]) | MIC (Klebsiella pneumoniae [11]) | MIC (Klebsiella pneumoniae [12]) | MIC (Klebsiella pneumoniae [13]) | MIC (Klebsiella pneumoniae [14]) | MIC (Klebsiella pneumoniae [15]) | MIC (Klebsiella oxytoca [16])
1 | C[C@@H](O)[C@H]1C(=O)N2C(C(=O)O)=C(S[C@@H]3CN[C@H](C(=O)Nc4cccc(C(=O)O)c4)C3)[C@H](C)[C@H]12 | > 32 µg/mL | > 32 µg/mL | > 32 µg/mL | > 32 µg/mL | > 16 µg/mL | > 16 µg/mL | > 32 µg/mL | > 32 µg/mL | – | – | – | – | – | – | – | –
2 | NCC[C@H](O)C(=O)N[C@@H]1C[C@H](N)[C@@H](O[C@H]2O[C@H](CN)[C@@H](O)[C@H](O)[C@H]2O)[C@H](O)[C@H]1O[C@H]1O[C@H](CO)[C@@H](O)[C@H](N)[C@H]1O [AMIKACIN] | > 1 µg/mL | 2 µg/mL (≈ 3.42 µM) | > 256 µg/mL | > 1 µg/mL | 2 µg/mL (≈ 3.42 µM) | > 256 µg/mL | > 256 µg/mL | > 1 µg/mL | – | – | – | – | – | – | – | –
3 | CO[C@@]1(NC(=O)Cc2cccs2)C(=O)N2C(C(=O)O)=C(COC(N)=O)CS[C@@H]21 [CEFOXITIN] | > 128 µg/mL | > 32 µg/mL | > 256 µg/mL | > 128 µg/mL | > 256 µg/mL | > 64 µg/mL | > 256 µg/mL | 32 µg/mL (≈ 74.9 µM) | – | – | – | – | – | – | – | –
4 | CC(C)(O/N=C(\C(=O)N[C@@H]1C(=O)N2C(C(=O)[O-])=C(C[n+]3ccccc3)CS[C@H]12)c1csc(N)n1)C(=O)O [CEFTAZIDIME] | > 256 µg/mL | > 256 µg/mL | > 256 µg/mL | > 128 µg/mL | 128 µg/mL (≈ 234 µM) | > 32 µg/mL | > 256 µg/mL | > 32 µg/mL | – | – | – | – | – | – | – | –
5 | C[C@@H](O)[C@H]1C(=O)N2C(C(=O)O)=C(SCCNC=N)C[C@H]12 [IMIPENEM ANHYDROUS] | > 32 µg/mL | > 32 µg/mL | > 32 µg/mL | > 16 µg/mL | > 32 µg/mL | > 2 µg/mL | > 32 µg/mL | > 16 µg/mL | – | – | – | – | – | – | – | –
6 | C[C@@H](O)[C@H]1C(=O)N2C(C(=O)O)=C(S[C@@H]3CN[C@H](C(=O)N(C)C)C3)[C@H](C)[C@H]12 [MEROPENEM] | > 32 µg/mL | > 32 µg/mL | > 32 µg/mL | > 32 µg/mL | > 32 µg/mL | > 2 µg/mL | > 32 µg/mL | > 16 µg/mL | – | – | – | – | – | – | – | –
7 | CCN1CCN(C(=O)N[C@@H](C(=O)N[C@@H]2C(=O)N3[C@@H]2SC(C)(C)[C@@H]3C(=O)O)c2ccccc2)C(=O)C1=O [PIPERACILLIN] | – | – | – | – | – | – | – | – | > 256 µg/mL | > 256 µg/mL | > 256 µg/mL | > 256 µg/mL | > 256 µg/mL | > 256 µg/mL | > 256 µg/mL | > 256 µg/mL
8 | CN(C)c1cc(NC(=O)CNC(C)(C)C)c(O)c2c1C[C@H]1C[C@H]3[C@H](N(C)C)C(O)=C(C(N)=O)C(=O)[C@@]3(O)C(O)=C1C2=O [TIGECYCLINE] | 0.5 µg/mL (≈ 0.854 µM) | 0.38 µg/mL (≈ 0.649 µM) | 2 µg/mL (≈ 3.41 µM) | 0.5 µg/mL (≈ 0.854 µM) | 2 µg/mL (≈ 3.41 µM) | 0.5 µg/mL (≈ 0.854 µM) | 2 µg/mL (≈ 3.41 µM) | 1 µg/mL (≈ 1.71 µM) | – | – | – | – | – | – | – | –
9 | COLISTIN | 0.5 µg/mL | 0.5 µg/mL | 0.25 µg/mL | 0.5 µg/mL | 1 µg/mL | 0.5 µg/mL | 0.5 µg/mL | 0.5 µg/mL | – | – | – | – | – | – | – | –

From ChEMBL document CHEMBL1649221, “Novel genetic environment of the carbapenem-hydrolyzing beta-lactamase KPC-2 among Enterobacteriaceae in China” (2009)
